We go through one compound from patent US20190032014A1, “USING MICROBIOTA METABOLITES TO DIFFERENTIATE NAÏVE T-CELLS AND RELATED METHODS TO INDUCE OR PREVENT INFLAMMATORY CONDITIONS” (THE TEXAS A&M UNIVERSITY SYSTEM, priority 2016, published 2019).

The subject of one experiment is NF-κB. The following applies: intestinal epithelial cells (IECs); Bansal et al. 2010; cited from earlier work.
For a further experiment, the system named is CD4+ CD25− naïve T cells. Briefly: In vitro naïve T cell differentiation, Th1-skew (IFN-γ+). In kind it is cell-based, C57BL/6 mice. The following applies: Th1 skewing conditions. On the procedure:
When naïve CD4+ CD25− cells were cultured 72 hours in αCD3/28 coated wells with Th0-, Th1- or Th2-skew cytokines and indole or solvent control, followed by stimulation with PMA, Ionomycin and Golgi Plug for the last 5 hours of culture, no effect on the % of Th1 and Th2 cells was observed (in contrast to the significant effect that indole has on Treg and Th17 cells; see FIGS. 2A and 2B).
CD4+ CD25− T cells were isolated to high purity (>98%) from the pooled spleen and mesenteric lymph nodes of C57BL/6 mice (Jackson Labs) with a BD FACS Aria II flow cytometer. Fc Block (BD), αCD4-efluor450 (eBioscience clone GK1.5) and αCD25-PECy7 (eBioscience clone PC61.5) antibodies were used for staining before sorting.
For Th1-skew: 5 ng/mL IL-12 (Peprotech cat. #210-12) and 10 µg/mL αIL-4 (BioXCell clone 11B11) were added to culture. For Th2-skew: 10 ng/mL IL-4 (Peprotech) and 10 μg/mL αIFN-γ (BioXCell clone R4-6A2) were added to culture. For Th17-skew: 10 ng/mL IL-6 (Peprotech), 5 ng/mL IL-23 (R&D), 0.5 ng/mL TGF-β (Peprotech), 10 μg/mL al-4 (BioXCell clone 11B11), and 10 μg/mL αIFN-γ (BioXCell clone R4-6A2) were added to culture. For Treg-skew: 2 ng/mL TGF-β (Peprotech) and 100 U/mL IL-2 (Roche) were added to culture. Sodium Propionate, sodium acetate, sodium butyrate and sodium chloride (all from Sigma-Aldrich) were solubilized in media and added to culture. Indole was solubilized in DMF (both from Sigma-Aldrich) at 2M and brought to final concentration in media. MGCD0103 (Selleck Chemicals) was solubilized in DMF at 2 mM and brought to final concentration in media. A 0.05% DMF solvent control was used for all experiments.

Experiment [1] addresses T1, aryl hydrocarbon receptor (AhR) (Homo sapiens, UniProt P35869).
T1 sequence (P35869 11-848): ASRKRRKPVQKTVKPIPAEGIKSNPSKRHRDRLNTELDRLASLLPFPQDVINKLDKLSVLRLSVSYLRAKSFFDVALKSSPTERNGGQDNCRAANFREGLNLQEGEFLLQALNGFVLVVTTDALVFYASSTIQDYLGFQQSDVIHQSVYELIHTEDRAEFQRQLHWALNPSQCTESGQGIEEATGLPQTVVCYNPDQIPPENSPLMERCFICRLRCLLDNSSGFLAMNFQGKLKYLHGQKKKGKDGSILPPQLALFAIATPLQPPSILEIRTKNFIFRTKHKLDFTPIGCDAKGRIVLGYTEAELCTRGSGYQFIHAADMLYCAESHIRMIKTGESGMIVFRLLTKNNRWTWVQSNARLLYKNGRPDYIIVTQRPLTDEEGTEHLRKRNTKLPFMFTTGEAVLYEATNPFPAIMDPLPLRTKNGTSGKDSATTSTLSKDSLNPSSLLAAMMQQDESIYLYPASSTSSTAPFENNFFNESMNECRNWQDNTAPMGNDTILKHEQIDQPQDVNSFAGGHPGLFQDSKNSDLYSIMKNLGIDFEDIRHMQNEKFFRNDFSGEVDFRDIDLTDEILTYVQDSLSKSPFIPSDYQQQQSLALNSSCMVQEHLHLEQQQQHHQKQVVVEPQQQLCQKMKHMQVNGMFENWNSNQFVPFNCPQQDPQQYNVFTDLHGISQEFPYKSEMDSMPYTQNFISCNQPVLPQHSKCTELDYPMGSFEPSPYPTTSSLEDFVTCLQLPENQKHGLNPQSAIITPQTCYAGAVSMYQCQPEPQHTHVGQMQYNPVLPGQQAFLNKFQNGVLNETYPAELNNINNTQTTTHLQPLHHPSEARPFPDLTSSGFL
To be noted: intestinal epithelial cells; Jin et al. 2014; cited from earlier work.

“Also recorded” adds a separate entry of the source. Like-named read-outs stand apart in the source and are kept apart here.

Procedure for iTregs: For example, TDMM- and control-induced Treg cultures from CD4+ CD25− GFP− naïve T cells of FOXP3EGFP mice are sorted based on GFP fluorescence. GFP+ cells (˜1×10^6 cells/mL) are cultured in the presence of pro-inflammatory cytokines IL-1, IL-6, IL-21 and IL-23 ±TCR stimulation on an anti-CD3/CD28 mAb coated plate for 24, 48 and 72 hours [Yang, X. O., et al., Immunity 29(1): p. […] Next, the stability (as measured by expression of FOXP3, RORγT, TGF-β, IL-10, IL-35 and IL-17) of TDMM-conditioned Tregs is analyzed compared to control-induced Tregs by ELISA of supernatants or 4 h treatment with Golgi plug (for cytokine staining) and subsequent intracellular staining with fluorophore-conjugated mAbs and flow cytometry.

`c1ccc2[nH]ccc2c1` [Indole, indole]: in the experiment with NF-κB, the “NF-κB activation and indicators of inflammation” value was “inhibits NF-κB activation and attenuates indicators of inflammation”. Moreover, the FoxP3 expression in the experiment with iTregs (control (DMF induced) iTregs in the presence of indole, after TCR stimulation (αCD3/28), without indole 9.3%) came out at 26.1%; with iTregs (control (DMF induced) iTregs in the presence of indole, first value, before TCR stimulation), 52.8%; with iTregs (indole-induced iTregs cultured three days with 1 mM indole, first value), 64.2%; with iTregs (indole-induced iTregs cultured three days with 1 mM indole, second value, after TCR stimulation), 52.2%; in the experiment with iTregs (indole-induced iTregs cultured three days with DMF, first value), 63%; with iTregs (indole-induced iTregs cultured three days with DMF, second value, after TCR stimulation), 24.9%. In the experiment on CD4+ CD25− naïve T cells (regardless of 5-HI presence), the “% IFN-γ+ cells, indole combined with butyrate” value is on record as “the % IFN-γ+ cells decreases”. Also, the “% IFN-γ+ cells, indole combined with 5-HI” value in the experiment with CD4+ CD25− naïve T cells (vs 5-HI alone) is “negated when 5-HI is combined with indole”. For the same compound, the “effect on % Th1 cells (IFN-γ+)” value in the experiment with CD4+ CD25− naïve T cells (vs solvent control) was “no effect; also recorded: did not influence the development of Th1 and Th2 cells; also recorded: did not affect the Th1 skewing of Th1 cells”. Also, the AhR agonist/antagonist activity result in experiment [1] is “acts as both an agonist and antagonist”.
